Data published in article PMC3392958, “Assay Format as a Critical Success Factor for Identification of Novel Inhibitor Chemotypes of Tissue-Nonspecific Alkaline Phosphatase from High-Throughput Screening” (Molecules, 2010).
Like-named read-outs stand apart in the source and are kept apart here. One block for each molecule: values may come before it.

Columns and labels:
[1] = molecular target: T1, TNAP (Homo sapiens, UniProt P05186); test: TNAP luminescent assay (CDP-star substrate, 100 mM DEA); format: biochemical; details: for improvement in TNAP potency over parent compound: MLS-0091995 vs CID-646303, MLS-0111547 vs MLS-0004120
T1 construct: made in house; host or cells: COS-1 cells, transient expression; dialyzed serum-free conditioned medium
T1 sequence (P05186 18-501 limits assumed): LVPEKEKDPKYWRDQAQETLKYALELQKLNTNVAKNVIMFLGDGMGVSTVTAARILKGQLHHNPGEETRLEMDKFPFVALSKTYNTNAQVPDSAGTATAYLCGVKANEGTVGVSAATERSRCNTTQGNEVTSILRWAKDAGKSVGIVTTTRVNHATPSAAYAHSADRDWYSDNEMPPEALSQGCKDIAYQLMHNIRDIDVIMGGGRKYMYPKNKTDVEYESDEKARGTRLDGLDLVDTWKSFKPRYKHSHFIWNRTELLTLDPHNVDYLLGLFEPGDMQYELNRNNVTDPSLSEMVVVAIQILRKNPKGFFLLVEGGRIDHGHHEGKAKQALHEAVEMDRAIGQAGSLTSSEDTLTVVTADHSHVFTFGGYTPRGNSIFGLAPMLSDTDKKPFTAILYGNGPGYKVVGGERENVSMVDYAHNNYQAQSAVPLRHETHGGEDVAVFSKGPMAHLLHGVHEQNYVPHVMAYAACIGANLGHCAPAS
Experimental: (§1) Development of the novel luminescent TNAP assay using CDP-star substrate and detailed protocol of its application for HTS is described in more detail elsewhere. […] Briefly, the assay was 50 μM CDP-star substrate in assay buffer containing 100 mM DEA-HCl (pH 9.8), 1 mM MgCl2, and 20 μM ZnCl2. The luminescence signal was measured after a 30-min incubation at room temperature on an EnVision plate reader (PerkinElmer, Waltham, MA). […] Detailed protocols can be found in the respective AIDs, however, the final buffer conditions were 100 mM DEA, pH 9.8, 1.0 mM MgCl2, 0.02 mM ZnCl2 for both PLAP and IAP.

[2] = molecular target: T2, human PLAP (Homo sapiens, UniProt P05187); test: PLAP luminescent assay (CDP-star); format: biochemical
T2 construct: made in house; host or cells: COS-1 cells, transient expression; dialyzed serum-free conditioned medium
T2 sequence (P05187 23-506 limits assumed): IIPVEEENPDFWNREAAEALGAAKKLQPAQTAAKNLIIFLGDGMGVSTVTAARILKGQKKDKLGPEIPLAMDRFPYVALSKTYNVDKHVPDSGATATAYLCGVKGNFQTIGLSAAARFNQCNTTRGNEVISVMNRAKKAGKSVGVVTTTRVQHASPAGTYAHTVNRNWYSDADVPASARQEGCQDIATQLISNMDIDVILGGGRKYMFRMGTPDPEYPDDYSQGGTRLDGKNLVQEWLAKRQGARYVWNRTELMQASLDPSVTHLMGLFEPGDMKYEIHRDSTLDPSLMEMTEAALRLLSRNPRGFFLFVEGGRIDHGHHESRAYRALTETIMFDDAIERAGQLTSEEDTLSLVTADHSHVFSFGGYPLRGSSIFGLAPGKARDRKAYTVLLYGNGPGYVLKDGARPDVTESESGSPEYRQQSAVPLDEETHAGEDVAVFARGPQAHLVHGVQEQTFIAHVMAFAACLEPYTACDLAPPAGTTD
Experimental: (§2) Selectivity of Primary Actives Against other Phosphatases: To assess the selectivity of compounds across the alkaline phosphatase family, luminescent assays were developed for human PLAP and human IAP with the same CDP-Star reagent.
as §1

[3] = molecular target: T3, IAP (Homo sapiens, UniProt P09923); test: IAP luminescent assay (CDP-star); format: biochemical
T3 construct: made in house; host or cells: COS-1 cells, transient expression; dialyzed serum-free conditioned medium
T3 sequence (P09923 20-503 limits assumed): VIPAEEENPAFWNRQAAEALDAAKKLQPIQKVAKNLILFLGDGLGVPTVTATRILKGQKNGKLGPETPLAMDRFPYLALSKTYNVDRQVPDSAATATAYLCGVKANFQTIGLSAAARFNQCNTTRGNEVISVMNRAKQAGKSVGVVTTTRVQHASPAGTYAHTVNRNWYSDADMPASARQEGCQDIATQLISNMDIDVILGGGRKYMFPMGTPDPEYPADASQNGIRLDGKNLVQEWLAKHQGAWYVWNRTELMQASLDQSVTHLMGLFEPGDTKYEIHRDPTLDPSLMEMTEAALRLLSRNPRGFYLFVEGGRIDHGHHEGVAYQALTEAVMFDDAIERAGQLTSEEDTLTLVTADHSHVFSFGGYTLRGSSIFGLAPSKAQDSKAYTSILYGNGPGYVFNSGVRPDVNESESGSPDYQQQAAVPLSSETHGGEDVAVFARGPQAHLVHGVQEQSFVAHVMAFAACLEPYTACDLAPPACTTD
Experimental: as §2, §1

[4] = molecular target: T1, TNAP; test: TNAP colorimetric assay (pNPP substrate, OD405, 1M DEA); format: biochemical
Experimental: (§3) The colorimetric TNAP assay was performed as previously described with slight modifications.

[5] = molecular target: T1, TNAP; test: TNAP colorimetric malachite green phosphate detection (MG) assay; format: biochemical; details: fresh solid samples from vendors; read-out: IC50 SAR-MG
Experimental: as §3

[6] = molecular target: T1, TNAP; set-up: method as in PMID 19556612; details: three DEA concentrations tested; cited from earlier work
[7] = optimized pyrazole series, read-out: TNAP Lumi IC50
[8] = TNAP, read-out: IC50 (Figure 6, pyrazole series optimization)
[9] = luminescence-based assay, 0.1M DEA, read-out: TNAP IC50
[10] = catechol series, read-out: PLAP IC50
[11] = catechol series, read-out: IAP IC50
[12] = phtalimide triazole series, read-out: IC50 IAP-Lumi
[13] = phtalimide triazole series, read-out: IC50 TNAP- Lumi
[14] = read-out: Selectivity Panel IC50 PLAP
[15] = compounds from MLSMR in liquid form, read-out: IC50 HTS-Color
[16] = fresh solid samples from vendors, read-out: IC50 SAR-Color
[17] = read-out: Selectivity Panel IC50 IAP
[18] = compounds from MLSMR in liquid form, read-out: IC50 HTS-Lumi
[19] = fresh solid samples from vendors, read-out: IC50 SAR-Lumi
[20] = read-out: Selectivity Panel IC50 TNAP
[21] = bisarylsulfonamide series, NA = inactive (up to 100 µM), read-out: TNAP-Lumi IC50

IC50 [1, 7]: 42 nM
SMILES: O=C(NCCO)c1cc(-c2cc(F)c(Cl)cc2Cl)n[nH]1 [MLS-0146165]

improvement in TNAP potency over parent compound [1]: 3 fold
IC50 [1, 8]: 500 nM
IC50 [1, 9]: 480 nM
SMILES: O=C(c1[nH]nc2c1COc1ccccc1-2)N1CCCC1 [MLS-0111547]

IC50 [2, 10]: 2100 nM
IC50 [3, 11]: 30200 nM
SMILES: O=C(Cn1ccnc1)c1ccc(O)c(O)c1 [Compound 1]

IC50 [2, 10]: 9100 nM
SMILES: O=C(CNc1nc2ccccc2[nH]1)c1ccc(O)c(O)c1 [Compound 2]

IC50 [1, 7]: 75 nM
SMILES: CN(C)C(=O)c1cc(-c2ccc(Cl)cc2Cl)n[nH]1 [MLS-0146148]

activity against TNAP in vitro ([1]; luminescence-based assay): inactive
SMILES: COc1ccc(OC)c(C(=O)Nc2cnc3ccccc3c2)c1 [MLS-0111666]

IC50 [1, 8]: 1300 nM
IC50 [1, 9]: 1330 nM
SMILES: O=C(O)c1[nH]nc2c1COc1ccccc1-2 [MLS-0004120]

IC50 [1, 7]: 24 nM
SMILES: CC(C)NC(=O)c1cc(-c2ccc(Cl)cc2Cl)n[nH]1 [MLS-0146149]

improvement in TNAP potency over parent compound [1]: 2 fold
IC50 [1, 9]: 500 nM
SMILES: COC(=O)c1cc(-c2ccc(Cl)cc2Cl)n[nH]1 [MLS-0091995]

selectivity as inhibitor of PLAP over IAP ([2]; catechol series): over 27 fold
selectivity as inhibitor of PLAP over TNAP ([2]; catechol series): over 27 fold
IC50 [2, 10]: 4200 nM
SMILES: CCc1nccn1CC(=O)c1ccc(O)c(O)c1 [MLS-0315848]

IC50 [1, 13]: > 100000 nM
SMILES: O=C1C2CCCCC2C(=O)N1c1nc(CCc2ccccc2)n[nH]1 (centres unmarked) [MLS-0091984]

IC50 [1, 7]: 52 nM
SMILES: NNC(=O)c1cc(-c2ccc(Cl)cc2Cl)n[nH]1 [MLS-0146145]

IC50 [2, 14]: > 100000 nM
IC50 [4, 15]: > 100000 nM
IC50 [4, 16]: > 100000 nM
IC50 [3, 17]: 44000 nM
IC50 [5]: > 100000 nM
IC50 [1, 8]: 1000 nM
IC50 [1, 18]: 980 nM
IC50 [1, 19]: 740 nM
IC50 [1, 20]: 740 nM
SMILES: O=C(O)c1cc(-c2ccccc2Cl)[nH]n1 [MLS-0005718]
mechanism of TNAP inhibition with respect to DEA [6]: competitive

IC50 [3, 11]: 49500 nM
IC50 ([1]; catechol series, read-out: TNAP IC50): 8600 nM
SMILES: Cc1cc(C)nc(SCC(=O)c2ccc(O)c(O)c2)n1 [MLS-0315687]

IC50 [2, 14]: > 100000 nM
IC50 [4, 15]: 21000 nM
IC50 [4, 16]: 46000 nM
IC50 [3, 17]: > 100000 nM
IC50 [5]: 74000 nM
IC50 [1, 18]: 3200 nM
IC50 [1, 19]: 4600 nM
SMILES: Oc1cc(-c2cccc3ccccc23)[nH]n1 [MLS-0039961]
mechanism of TNAP inhibition with respect to DEA [6]: noncompetitive

selectivity as inhibitor of PLAP over IAP ([2]; catechol series): > 25 fold
selectivity as inhibitor of PLAP over TNAP ([2]; catechol series): more than 50 fold
SMILES: Cc1cnn(CC(=O)c2ccc(O)c(O)c2)c1 [MLS-0390945]

IC50 [1, 7]: 20 nM
SMILES: O=C(NCCO)c1cc(-c2ccc(Cl)cc2Cl)n[nH]1 [MLS-0146161]

Further lines, the molecule ahead of its results:

SMILES: COc1ccc(OC)c(S(=O)(=O)Nc2ccc3ncccc3c2)c1 [MLS-0111639]
activity against TNAP in vitro ([1]; luminescence-based assay): eliminates activity

SMILES: Cc1nc2ccccc2n1CC(=O)c1ccc(O)c(O)c1 [MLS-0315854]
selectivity as inhibitor of PLAP over IAP ([2]; catechol series): 10 fold
selectivity as inhibitor of PLAP over TNAP ([2]; catechol series): 40 fold

SMILES: O=C1C2CC=CCC2C(=O)N1c1nnc(-c2ccco2)[nH]1 (centres unmarked) [MLS-0091966]
selectivity for IAP over TNAP [3]: 10 fold
IC50 [3, 12]: 410 nM
IC50 [1, 13]: 4680 nM

SMILES: COc1ccc(C)cc1S(=O)(=O)Nc1cccnc1 [MLS-0010847]
IC50 [2, 14]: > 100000 nM
IC50 [4, 15]: 710 nM
IC50 [4, 16]: 830 nM
IC50 [3, 17]: > 100000 nM
IC50 [5]: 950 nM
IC50 [1, 18]: 1800 nM
IC50 [1, 19]: 930 nM
IC50 [1, 20]: 930 nM

SMILES: COc1ccc(OC)c(CNc2cnc3ccccc3c2)c1 [MLS-0111667]
activity against TNAP in vitro ([1]; luminescence-based assay): inactive

SMILES: O=C1C2C3C=CC(C3)C2C(=O)N1c1n[nH]c(CCc2ccccc2)n1 (centres unmarked) [MLS-0091982]
IC50 [1, 13]: 30600 nM

SMILES: O=S(=O)(Nc1cnc2ccccc2c1)c1ccccc1 [MLS-0090845]
IC50 [1, 9]: > 100000 nM

SMILES: O=C1C2CC=CCC2C(=O)N1c1nnc(-c2cccnc2)[nH]1 (centres unmarked) [MLS-0091977]
selectivity for IAP over TNAP [3]: 6 fold
IC50 [1, 13]: 10500 nM

SMILES: O=C1C2CC=CCC2C(=O)N1c1n[nH]c(Cc2ccccc2)n1 (centres unmarked) [MLS-0067142]
IC50 [2, 14]: 3100 nM
mechanism of TNAP inhibition with respect to DEA [6]: competitive
IC50 [4, 15]: > 100000 nM
IC50 [4, 16]: > 100000 nM
IC50 [3, 12]: 540 nM
IC50 [3, 17]: 540 nM
IC50 [5]: > 100000 nM
IC50 [1, 18]: 240 nM
IC50 [1, 13]: 210 nM
IC50 [1, 20]: 190 nM

SMILES: O=C1C2CC=CCC2C(=O)N1c1nnc[nH]1 (centres unmarked) [MLS-0091980]
activity against IAP [3]: elimination of activity
IC50 [3, 12]: > 100000 nM
activity against TNAP in vitro ([1]; luminescence-based assay): elimination of activity
IC50 [1, 13]: > 100000 nM

SMILES: O=C1C2CCCCC2C(=O)N1c1nc(Cc2ccccc2)n[nH]1 (centres unmarked) [MLS-0091981]
IC50 [3, 12]: 1100 nM
IC50 [1, 13]: 1570 nM

SMILES: COc1ccc(S(=O)(=O)Nc2cnc3ccccc3c2)cc1OC [MLS-0090842]
activity against TNAP in vitro ([1]; luminescence-based assay): inactive

SMILES: COc1ccc(OC)c(S(=O)(=O)Nc2cccnc2)c1 [MLS-0068486]
reduction in TNAP potency compared with the lead structure CID-2931238 [1]: roughly 4 fold
IC50 [1, 21]: 920 nM

SMILES: O=C1c2ccccc2C(=O)N1c1nc(Cc2ccccc2)n[nH]1 [MLS-0091978]
IC50 [1, 13]: 670 nM

SMILES: O=C1C2CC=CCC2C(=O)N1c1nnc(CCc2ccccc2)[nH]1 (centres unmarked) [MLS-0091987]
selectivity for IAP over TNAP [3]: 40 fold
IC50 [3, 12]: 720 nM
IC50 [1, 13]: 27900 nM

SMILES: COc1cccc(S(=O)(=O)Nc2cnc3ccccc3c2)c1 [MLS-0090844]
reduction in TNAP potency compared with the lead structure CID-2931238 [1]: 100 fold
IC50 [1, 21]: 25700 nM
